Measurements: PubChem BioAssay (NCI)
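48-hour exposure; five concentrations; linearly interpolated endpoints. TGI is the concentration that stops growth completely.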

Experiments:
Assay in all cases: NCI tumour cell line growth inhibition, 48 h
[1] = test system: A498 renal
[2] = test system: NCI-H522 lung
[3] = test system: OVCAR-4 ovarian
[4] = test system: DMS 114 small cell lung
[5] = test system: OVCAR-5 ovarian
[6] = test system: HOP-92 NSCLC
[7] = test system: SK-MEL-2 melanoma
[8] = test system: TK-10 renal
[9] = test system: EKVX NSCLC
[10] = test system: HCT-116 colon
[11] = test system: SF-539 CNS
[12] = test system: NCI-H226 lung
[13] = test system: SF-268 CNS
[14] = test system: COLO 205 colon
[15] = test system: RXF 393 renal
[16] = test system: SNB-19 CNS
[17] = test system: CAKI-1 renal
[18] = test system: M14 melanoma
[19] = test system: MOLT-4 leukemia
[20] = test system: CCRF-CEM leukemia
[21] = test system: HT29 colon
[22] = test system: M19-MEL melanoma
[23] = test system: LXFL 529 NSCLC
[24] = test system: IGROV1 ovarian
[25] = test system: U251 CNS
[26] = test system: UACC-62 melanoma
[27] = test system: SN12C renal
[28] = test system: HOP-18 NSCLC
[29] = test system: HL-60(TB) leukemia
[30] = test system: SF-295 CNS
[31] = test system: KM12 colon
[32] = test system: SR leukemia
[33] = test system: UACC-257 melanoma
[34] = test system: OVCAR-3 ovarian
[35] = test system: OVCAR-8 ovarian
[36] = test system: SK-MEL-28 melanoma
[37] = test system: LOX IMVI melanoma
[38] = test system: K-562 leukemia
[39] = test system: A549 NSCLC
[40] = test system: SW-620 colon
[41] = test system: ACHN renal
[42] = test system: HCT-15 colon
[43] = test system: NCI-H460 lung
[44] = test system: KM20L2 colon
[45] = test system: NCI-H23 lung
[46] = test system: SK-OV-3 ovarian
[47] = test system: HOP-62 NSCLC
[48] = test system: HCC-2998 colon
[49] = test system: MALME-3M melanoma
[50] = test system: 786-0 renal
[51] = test system: UO-31 renal
[52] = test system: DLD-1 colon
[53] = test system: XF 498 CNS
[54] = test system: SNB-75 CNS
[55] = test system: SNB-78 CNS
[56] = test system: DMS 273 small cell lung
[57] = test system: RPMI-8226 leukemia
[58] = test system: RXF-631 renal
[59] = test system: SK-MEL-5 melanoma

CC(C)(C)c1cc([Si](C)(C)C)c(C#N)c([Si](C)(C)C)c1
TGI [1]: > 100 µM
TGI [2]: > 100 µM
TGI [3]: > 100 µM
TGI [4]: > 100 µM
TGI [5]: > 100 µM
TGI [6]: > 100 µM
TGI [7]: > 100 µM
TGI [8]: > 100 µM
TGI [9]: > 100 µM
TGI [10]: > 100 µM
TGI [11]: > 100 µM
TGI [12]: > 100 µM
TGI [13]: > 100 µM
TGI [14]: > 100 µM
TGI [15]: > 100 µM
TGI [16]: > 100 µM
TGI [17]: > 100 µM
TGI [18]: > 100 µM
TGI [19]: > 100 µM
TGI [20]: > 100 µM
TGI [21]: > 100 µM
TGI [22]: > 100 µM
TGI [23]: > 100 µM
TGI [24]: > 100 µM
TGI [25]: > 100 µM
TGI [26]: > 100 µM
TGI [27]: > 100 µM
TGI [28]: > 100 µM
TGI [29]: 44.2 µM
TGI [30]: > 100 µM
TGI [31]: > 100 µM
TGI [32]: 85.5 µM
TGI [33]: > 100 µM
TGI [34]: > 100 µM
TGI [35]: > 100 µM
TGI [36]: > 100 µM
TGI [37]: > 100 µM
TGI [38]: > 100 µM
TGI [39]: > 100 µM
TGI [40]: > 100 µM
TGI [41]: > 100 µM
TGI [42]: > 100 µM
TGI [43]: > 100 µM
TGI [44]: > 100 µM
TGI [45]: > 100 µM
TGI [46]: > 100 µM
TGI [47]: > 100 µM
TGI [48]: > 100 µM
TGI [49]: > 100 µM
TGI [50]: > 100 µM
TGI [51]: > 100 µM
TGI [52]: > 100 µM
TGI [53]: 67 µM
TGI [54]: > 100 µM
TGI [55]: > 100 µM
TGI [56]: > 100 µM

Cc1ccc(C2=C(c3ccccc3)C(O)(c3ccccc3)C(c3ccccc3)=C2c2ccc(C)cc2)cc1
TGI [1]: > 100 µM
TGI [2]: > 100 µM
TGI [57]: > 100 µM
TGI [5]: > 100 µM
TGI [7]: > 100 µM
TGI [8]: > 100 µM
TGI [9]: > 100 µM
TGI [10]: > 100 µM
TGI [11]: > 100 µM
TGI [12]: > 100 µM
TGI [58]: > 100 µM
TGI [13]: > 100 µM
TGI [15]: > 100 µM
TGI [16]: > 100 µM
TGI [18]: > 100 µM
TGI [21]: > 100 µM
TGI [22]: > 100 µM
TGI [23]: > 100 µM
TGI [24]: > 100 µM
TGI [25]: > 100 µM
TGI [59]: > 100 µM
TGI [27]: > 100 µM
TGI [28]: > 100 µM
TGI [30]: > 100 µM
TGI [31]: > 100 µM
TGI [32]: > 100 µM
TGI [33]: > 100 µM
TGI [35]: > 100 µM
TGI [36]: > 100 µM
TGI [38]: > 100 µM
TGI [39]: > 100 µM
TGI [40]: > 100 µM
TGI [41]: > 100 µM
TGI [42]: > 100 µM
TGI [43]: > 100 µM
TGI [44]: > 100 µM
TGI [45]: > 100 µM
TGI [46]: > 100 µM
TGI [47]: > 100 µM
TGI [48]: > 100 µM
TGI [49]: > 100 µM
TGI [50]: > 100 µM
TGI [51]: > 100 µM
TGI [52]: > 100 µM
TGI [53]: > 100 µM
TGI [54]: > 100 µM
TGI [55]: > 100 µM
